In patent US12624025B2, “Inhibitors of SARM1” (DISARM THERAPEUTICS, INC., priority 2019, dated 2026):

Biological target: T1, SARM1 SAM-TIR (Homo sapiens, UniProt Q6SZW1)
T1 construct: a fragment of the SARM1 molecule encompassing the SAM and TIR domains; tandem Strep-tag II (WSHPQFEK twice, with Gly/Ser linkers); made in house; host or cells: NRK1-HEK293T cells (transient transfection; crude lysate supernatant used, not purified)
T1 sequence (Q6SZW1 409-724 limits assumed): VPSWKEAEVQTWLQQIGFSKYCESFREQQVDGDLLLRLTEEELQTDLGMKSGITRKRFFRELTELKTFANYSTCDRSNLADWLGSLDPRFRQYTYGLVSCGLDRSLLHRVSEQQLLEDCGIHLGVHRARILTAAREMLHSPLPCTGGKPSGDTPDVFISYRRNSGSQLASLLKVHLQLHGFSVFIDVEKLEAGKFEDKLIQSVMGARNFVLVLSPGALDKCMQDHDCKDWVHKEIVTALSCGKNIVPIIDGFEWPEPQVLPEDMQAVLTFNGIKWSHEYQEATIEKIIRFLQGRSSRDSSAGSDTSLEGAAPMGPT
Test: SAM-TIR SARM1 IC50 assay (NADase activity, NAD+ cleavage, RapidFire MS readout)
Format: biochemical
Settings: not given
Procedure: This Example describes an assay of SAM-TIR NADase activity and use of this assay to measure the efficacy of compounds of Formula I to block SARM1 mediated NAD+ cleavage. This assay is optimized in such a way as to characterize the efficacy of the compounds in Formula I to inhibit SARM1 activity and to calculate an IC50 value for each compound. This assay makes use of a fragment of the SARM1 molecule encompassing the SAM and TIR domains.
NRK1-HEK293T cells were seeded onto 150 cm^2 plates at 20×10^6 cells per plate. The next day, the cells were transfected with 15 μg FCIV-SST (SAM-TIR expression plasmid, SEQ ID NO: 1) using X-TREMEGENE™ 9 DNA Transfection Reagent (Roche product #06365787001).
The cultures were supplemented with 1 mM NR at time of transfection to minimize toxicity from SAM-TIR overexpression. Forty-eight hours after transfection, cells were harvested, pelleted by centrifugation at 1,000 rpm (Sorvall ST 16R centrifuge, Thermo Fisher), and washed once with cold PBS (0.01 M phosphate buffered saline NaCl 0.138 M; KCl 0.0027 M; pH 7.4). The cells were resuspended in PBS with protease inhibitors (cOmplete™ protease inhibitor cocktail, Roche product #11873580001) and cell lysates were prepared by sonication (Branson Sonifer 450, output=3, 20 episodes of stroke). The lysates were centrifuged (12,000×g for 10 min at 4° C.) to remove cell debris and the supernatants (containing SARM1 SAM-TIR protein) were stored at −80° C. for later use in the in vitro SARM1 SAM-TIR NADase assay (see below). Protein concentration was determined by the Bicinchoninic (BCA) method and used to normalize lysate concentrations.
The enzymatic assay was performed in a 384-well polypropylene plate in Dulbecco's PBS buffer in a final assay volume of 20 μL. SAM-TIR lysate with a final concentration of 5 μg/mL was pre-incubated with the respective compound at 1% DMSO final assay concentration over 2 h at room temperature. The reaction was initiated by addition of 5 μM final assay concentration of NAD+ as substrate. After a 2 hr room temperature incubation, the reaction was terminated with 40 μL of stop solution of 7.5% trichloroactetic acid in acetonitrile. The NAD+ and ADPR concentrations were analyzed by a RapidFire High Throughput Mass Spectrometry System (Agilent Technologies, Santa Clara, CA) using an API4000 triple quadrupole mass spectrometer (AB Sciex Framingham, Mass.).

| SMILES | IC50 [µM] |
| --- | --- |
| CS(=O)(=O)N1C2CCC1C(n1sc(Nc3c(Cl)ccc4ncccc34)c(C#N)c1=O)C2 (centres unmarked) [Example 26] | < 1 |

Same assay, conditions: SAM-TIR lysate 5 μg/mL, 2 h pre-incubation with compound, 5 μM NAD+, 2 hr room temperature; read-out: SARM1 IC50

| SMILES | IC50 [µM] |
| --- | --- |
| CN1CCC(n2sc(Nc3c(Cl)ccc4ncccc34)c(C#N)c2=O)CC1 [Example 1] | < 1 |
| CC(=O)N1CCC(n2sc(Nc3ccccc3C(F)(F)F)c(C#N)c2=O)CC1 [Example 2] | < 1 |
| C[C@@H]1CNC[C@@H]1n1sc(Nc2ccccc2C(F)(F)F)c(C#N)c1=O [Example 3] | < 1 |
| N#Cc1c(Nc2ccccc2C(F)(F)F)sn(-c2ccccc2)c1=O [Example 4] | < 1 |
| N#Cc1c(Nc2ccccc2C(F)(F)F)sn([C@H]2CCNC2)c1=O [Example 5] | < 1 |
| N#Cc1c(Nc2ccccc2C(F)(F)F)sn(-c2cccc(C(N)=O)c2)c1=O [Example 6] | < 1 |
| CS(=O)(=O)N1CC[C@H](n2sc(Nc3ccccc3C(F)(F)F)c(C#N)c2=O)C1 [Example 7] | < 1 |
| N#Cc1c(Nc2ccccc2C(F)(F)F)sn(-c2cccc3[nH]ncc23)c1=O [Example 8] | < 1 |
| N#Cc1c(Nc2ccccc2C(F)(F)F)sn([C@H]2CCN(C(N)=O)C2)c1=O [Example 9] | < 1 |
| N#Cc1c(Nc2ccccc2C(F)(F)F)sn([C@@H]2CCN(C(N)=O)C2)c1=O [Example 10] | < 1 |
| N#Cc1c(Nc2ccccc2C(F)(F)F)sn(-c2ccc3[nH]ncc3c2)c1=O [Example 11] | < 1 |
| CS(=O)(=O)N1CC[C@@H](n2sc(Nc3ccccc3C(F)(F)F)c(C#N)c2=O)C1 [Example 12] | < 1 |
| N#Cc1c(Nc2c(Cl)ccc3ncccc23)sn(-c2ccn[nH]2)c1=O [Example 13] | < 1 |
| N#Cc1c(Nc2ccccc2C(F)(F)F)sn(C2CCN(C(N)=O)CC2)c1=O [Example 14] | < 1 |
| CC(=O)N1CC[C@@H](n2sc(Nc3ccccc3C(F)(F)F)c(C#N)c2=O)C1 [Example 15] | < 1 |
| N#Cc1c(Nc2c(Cl)ccc3ncccc23)sn(C2CCNCC2)c1=O [Example 16] | < 1 |
| N#Cc1c(Nc2ccccc2C(F)(F)F)sn(-c2cccc(-c3cnco3)c2)c1=O [Example 18] | < 1 |
| N#Cc1c(Nc2ccccc2C(F)(F)F)sn(C2CCNCC2)c1=O [Example 19] | < 1 |
| CS(=O)(=O)N1CCC(n2sc(Nc3ccccc3C(F)(F)F)c(C#N)c2=O)CC1 [Example 20] | < 1 |
| N#Cc1c(Nc2ccccc2C(F)(F)F)sn([C@@H]2CCNC2)c1=O [Example 21] | < 1 |
| CS(=O)(=O)N1CC[C@H](n2sc(Nc3c(Cl)ccc4ncccc34)c(C#N)c2=O)C1 [Example 22] | < 1 |
| CC(=O)N1CC[C@H](n2sc(Nc3ccccc3C(F)(F)F)c(C#N)c2=O)C1 [Example 23] | < 1 |
| N#Cc1c(Nc2ccccc2C(F)(F)F)sn(C2CNCC23CC3)c1=O (centres unmarked) [Example 24] | < 1 |
| N#Cc1c(Nc2cccc3ncccc23)sn(-c2ccc3c(c2)OCCO3)c1=O [Example 25] | < 1 |
| N#Cc1c(Nc2ccccc2C(F)(F)F)sn([C@@H]2CNCC23CC3)c1=O [Example 27] | < 1 |

| SMILES | IC50 [µM] |
| --- | --- |
| C[C@@H]1CN(S(C)(=O)=O)C[C@H]1n1sc(Nc2c(Cl)ccc3ncccc23)c(C#N)c1=O [Example 28] | < 1 |
| CC(C)(C)OC(=O)n1ncc2cc(-n3sc(Nc4ccccc4C(F)(F)F)c(C#N)c3=O)ccc21 [Example 29] | < 1 |
| CS(=O)(=O)N1CC[C@@H](n2sc(Nc3c(Cl)ccc4ncccc34)c(C#N)c2=O)C1 [Example 30] | < 1 |
| N#Cc1c(Nc2ccccc2C(F)(F)F)sn(C2CCOCC2)c1=O [Example 31] | < 1 |
| N#Cc1c(Nc2c(Cl)ccc3ncccc23)sn([C@@H]2CCNC2)c1=O [Example 32] | < 1 |
| CN1CC[C@@H](n2sc(Nc3c(Cl)ccc4ncccc34)c(C#N)c2=O)C1 [Example 33] | < 1 |
| CS(=O)(=O)N1CC2CCC(C1)C2n1sc(Nc2c(Cl)ccc3ncccc23)c(C#N)c1=O (centres unmarked) [Example 34] | < 1 |
| COCCN(C)C(=O)c1c(Nc2ccccc2C(F)(F)F)sn(-c2ccccc2)c1=O [Example 35] | < 1 |
| CN1C[C@H](n2sc(Nc3c(Cl)ccc4ncccc34)c(C#N)c2=O)C2(CC2)C1 [Example 36] | < 1 |
| N#Cc1c(Nc2c(Cl)ccc3ncccc23)sn(C2C3CCC2CNC3)c1=O (centres unmarked) [Example 37] | < 1 |
| O=C(c1c(Nc2c(Cl)cccc2Cl)sn(-c2ccccc2)c1=O)N1CCOCC1 [Example 38] | < 1 |
| O=C(c1c(Nc2ccccc2C(F)(F)F)sn(-c2ccccc2)c1=O)N1CCOCC1 [Example 39] | < 1 |
| CN1C[C@@H](n2sc(Nc3c(Cl)ccc4ncccc34)c(C#N)c2=O)C2(CC2)C1 [Example 41] | < 1 |
| CS(=O)(=O)N1CC2CCC1C2n1sc(Nc2c(Cl)ccc3ncccc23)c(C#N)c1=O (centres unmarked) [Example 42] | < 1 |
| C[C@H]1CNCC[C@H]1n1sc(Nc2c(Cl)ccc3ncccc23)c(C#N)c1=O [Example 43] | < 1 |
| C[C@@H]1CNC[C@H]1n1sc(Nc2c(Cl)ccc3ncccc23)c(C#N)c1=O [Example 44] | < 1 |
| COc1cccc(OC)c1Nc1sn([C@@H]2CCNC2)c(=O)c1C(=O)N1CCOCC1 [Example 46] | < 1 |
| Cc1cnn(C)c1-n1sc(Nc2c(Cl)ccc3ncccc23)c(C#N)c1=O [Example 47] | 1 to 5 |
| N#Cc1c(Nc2c(Cl)ccc3ncccc23)sn([C@H]2CCNC2)c1=O [Example 48] | > 5 |
| CN(c1ccccc1C(F)(F)F)c1sn([C@@H]2CNCC23CC3)c(=O)c1C#N [Example 49] | > 5 |
| N#Cc1c(Nc2c(Cl)cccc2Cl)sn(-c2ccc(-n3cccn3)cc2)c1=O [Example 50] | < 1 |
| N#Cc1c(Nc2ccccc2C(F)(F)F)sn(-c2ccc(-n3cccn3)cc2)c1=O [Example 51] | < 1 |
| N#Cc1c(Nc2ccccc2C(F)(F)F)sn(-c2ccc3c(c2)OCCO3)c1=O [Example 52] | < 1 |
| N#Cc1c(Nc2ccccc2C(F)(F)F)sn(-c2ccc3cn[nH]c3c2)c1=O [Example 53] | < 1 |
